Measured values reported in patent publication US20060063755A1, “Loxapine analogs and methods of use thereof” (priority 2004, published 2006).
“And” between values parts separate entries of the source, which are not always exact repeats. Identical values can stand only once.

Assays:
alpha 1 receptors = test: Alpha 1 receptor binding assay; settings: read-out: Ki Alpha1
Procedure: (§1) Binding assays were performed using the disclosed sleep-inducing agents and derivatives selected from those listed in Table 1 in competitive binding assays with known standards for the H1 histamine receptor, and the M1, M2, and M3 muscarinic receptors, alpha 1 and alpha 2 receptors, and D1 and D2 receptors.

M2 muscarinic receptor = biological target: T1, M2 muscarinic receptor (Homo sapiens, UniProt P08172); test: M2 binding assay, [3H]-scopolamine N-methyl chloride, CHO cells; settings: human recombinant
T1 construct: purchased PerkinElmer, Inc., Wellesley, Mass; host or cells: CHO cells
T1 sequence (P08172 1-466): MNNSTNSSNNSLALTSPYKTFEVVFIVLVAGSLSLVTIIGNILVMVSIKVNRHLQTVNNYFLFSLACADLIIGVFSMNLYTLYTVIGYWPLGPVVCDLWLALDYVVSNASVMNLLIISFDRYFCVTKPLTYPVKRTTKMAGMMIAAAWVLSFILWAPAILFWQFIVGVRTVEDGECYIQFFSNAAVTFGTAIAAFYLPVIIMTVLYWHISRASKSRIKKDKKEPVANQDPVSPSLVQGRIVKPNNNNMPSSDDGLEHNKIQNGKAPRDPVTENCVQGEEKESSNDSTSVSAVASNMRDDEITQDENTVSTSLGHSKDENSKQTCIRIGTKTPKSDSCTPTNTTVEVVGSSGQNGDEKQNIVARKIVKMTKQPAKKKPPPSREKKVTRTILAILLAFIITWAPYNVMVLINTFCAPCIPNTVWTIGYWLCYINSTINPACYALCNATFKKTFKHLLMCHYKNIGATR

D2 receptors = D2 receptors (Homo sapiens, UniProt P14416); test: Dopamine D2 binding assay (human)
D2 receptors, sequence (P14416 whole entry): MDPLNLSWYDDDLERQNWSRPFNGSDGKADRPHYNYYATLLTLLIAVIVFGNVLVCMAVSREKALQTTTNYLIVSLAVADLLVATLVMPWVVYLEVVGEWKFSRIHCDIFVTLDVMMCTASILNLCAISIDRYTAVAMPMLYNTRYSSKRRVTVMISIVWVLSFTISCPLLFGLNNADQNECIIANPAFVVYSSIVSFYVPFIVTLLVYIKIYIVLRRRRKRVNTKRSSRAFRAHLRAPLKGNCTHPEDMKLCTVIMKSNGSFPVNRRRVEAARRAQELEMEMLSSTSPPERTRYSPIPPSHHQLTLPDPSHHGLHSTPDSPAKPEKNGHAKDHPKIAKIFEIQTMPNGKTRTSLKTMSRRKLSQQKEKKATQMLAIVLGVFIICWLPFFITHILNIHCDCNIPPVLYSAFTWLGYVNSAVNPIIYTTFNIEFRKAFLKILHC
Procedure: as §1, with “receptors. […]” for “receptors.”

M3 muscarinic receptor = biological target: T2, M3 muscarinic receptor (Homo sapiens, UniProt P20309); test: M3 binding assay, [3H]-scopolamine N-methyl chloride, CHO cells; settings: human recombinant
T2 construct: purchased PerkinElmer, Inc., Wellesley, Mass; host or cells: CHO cells
T2 sequence (P20309 whole entry): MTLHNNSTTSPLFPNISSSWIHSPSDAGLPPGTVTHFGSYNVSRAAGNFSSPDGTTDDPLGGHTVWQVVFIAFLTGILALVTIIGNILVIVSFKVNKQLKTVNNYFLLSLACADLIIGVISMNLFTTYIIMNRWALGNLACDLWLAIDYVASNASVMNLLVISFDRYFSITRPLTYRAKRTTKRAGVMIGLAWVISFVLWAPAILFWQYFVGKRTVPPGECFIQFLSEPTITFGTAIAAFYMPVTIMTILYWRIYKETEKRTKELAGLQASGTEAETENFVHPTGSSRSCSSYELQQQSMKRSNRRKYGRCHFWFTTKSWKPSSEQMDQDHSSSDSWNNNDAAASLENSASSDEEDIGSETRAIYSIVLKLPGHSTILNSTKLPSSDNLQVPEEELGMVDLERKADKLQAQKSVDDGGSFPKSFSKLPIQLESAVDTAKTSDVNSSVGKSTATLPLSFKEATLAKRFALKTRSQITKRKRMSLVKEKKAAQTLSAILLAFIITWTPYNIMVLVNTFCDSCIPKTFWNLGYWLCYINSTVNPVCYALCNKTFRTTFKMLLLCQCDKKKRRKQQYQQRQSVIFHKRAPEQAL

alpha 2 receptors = test: Alpha 2 receptor binding assay; settings: read-out: Ki Alpha2
Procedure: as §1

hERG channel = hERG channel (Homo sapiens, UniProt Q12809); test: hERG channel current block, whole cell recording in HEK293 cells; type: cell-based; settings: HEK293 cells expressing hERG
hERG channel, sequence (Q12809 whole entry): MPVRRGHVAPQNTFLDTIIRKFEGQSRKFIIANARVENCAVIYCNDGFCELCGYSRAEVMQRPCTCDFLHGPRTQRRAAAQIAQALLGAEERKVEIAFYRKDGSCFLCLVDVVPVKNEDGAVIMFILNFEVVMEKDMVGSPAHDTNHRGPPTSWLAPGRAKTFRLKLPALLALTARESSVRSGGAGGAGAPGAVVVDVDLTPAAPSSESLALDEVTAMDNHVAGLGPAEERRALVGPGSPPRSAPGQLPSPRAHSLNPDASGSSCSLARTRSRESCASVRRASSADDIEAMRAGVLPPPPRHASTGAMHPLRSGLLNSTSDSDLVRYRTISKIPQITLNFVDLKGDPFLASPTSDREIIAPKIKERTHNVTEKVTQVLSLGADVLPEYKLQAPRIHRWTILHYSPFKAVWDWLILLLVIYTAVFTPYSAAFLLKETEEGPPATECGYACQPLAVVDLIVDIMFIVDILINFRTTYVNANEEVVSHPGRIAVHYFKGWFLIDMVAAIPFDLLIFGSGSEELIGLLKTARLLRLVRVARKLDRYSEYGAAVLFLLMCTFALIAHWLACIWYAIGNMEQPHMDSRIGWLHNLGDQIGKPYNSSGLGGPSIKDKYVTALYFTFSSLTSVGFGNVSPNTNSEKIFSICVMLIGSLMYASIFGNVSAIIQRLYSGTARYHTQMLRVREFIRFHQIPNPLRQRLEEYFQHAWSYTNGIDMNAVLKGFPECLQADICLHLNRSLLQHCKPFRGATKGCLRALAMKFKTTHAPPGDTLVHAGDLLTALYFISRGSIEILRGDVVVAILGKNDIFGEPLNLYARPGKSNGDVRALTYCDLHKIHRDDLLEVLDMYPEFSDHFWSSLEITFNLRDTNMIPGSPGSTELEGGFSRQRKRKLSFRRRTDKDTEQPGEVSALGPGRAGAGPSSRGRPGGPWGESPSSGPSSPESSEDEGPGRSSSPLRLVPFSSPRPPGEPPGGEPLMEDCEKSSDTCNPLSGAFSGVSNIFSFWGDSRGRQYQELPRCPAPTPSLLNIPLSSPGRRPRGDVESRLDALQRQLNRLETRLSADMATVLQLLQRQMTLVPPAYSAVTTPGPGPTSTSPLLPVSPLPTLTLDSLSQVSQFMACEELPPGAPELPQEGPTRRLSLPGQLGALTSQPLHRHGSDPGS
Procedure: Other in vitro selection criteria for loxapine analogs of the invention includes hERG binding.
(Brown and Rampe (2000)).
In one embodiment of the HERG assay, the positive control (i.e., reference compound) is terfenadine (Sigma, St. Louis Mo.), which has been shown, at a concentration of 60 nM, to block HERG current by approximately 75%. Test compounds are delivered in HEPES-buffered physiological saline (HB-PS)+0.1% dimethyl sulfoxide (DMSO).
Clin. Exp. Allergy 29 Suppl 3, 174-181.
If the final DMSO concentration must be greater than 0.3%, to reach a specified test article concentration, a separate vehicle control test with an n>2 was performed at the highest final DMSO concentration.
Each cell acted as its own control. […] One concentration of the positive control article (60 nM terfenadine) was applied to two cells (n≧2).

Dopamine, D1 = Dopamine, D1 (Homo sapiens, UniProt P21728); test: Dopamine D1 (human recombinant) binding assay
Dopamine, D1, sequence (P21728 whole entry): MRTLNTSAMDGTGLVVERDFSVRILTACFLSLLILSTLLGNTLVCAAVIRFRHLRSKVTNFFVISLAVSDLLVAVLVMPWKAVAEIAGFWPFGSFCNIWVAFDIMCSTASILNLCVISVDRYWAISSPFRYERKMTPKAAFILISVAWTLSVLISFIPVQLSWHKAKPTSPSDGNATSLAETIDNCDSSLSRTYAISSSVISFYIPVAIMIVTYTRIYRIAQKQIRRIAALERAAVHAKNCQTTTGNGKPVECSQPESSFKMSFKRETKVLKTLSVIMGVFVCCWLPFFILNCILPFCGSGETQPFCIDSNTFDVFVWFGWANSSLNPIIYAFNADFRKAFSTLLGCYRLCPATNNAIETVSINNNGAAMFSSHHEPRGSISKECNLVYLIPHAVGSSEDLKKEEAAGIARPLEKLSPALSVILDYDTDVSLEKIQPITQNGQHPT
Procedure: as §1
Dopamine, D1 (human recombinant) binding assay was performed according to published procedures. See, e.g., Jarvie, et al. J. Recept Res., 13(1-4): 573-90 (1993); and Billard, et al. Life Sciences, 35(18): 1885-93 (1984), with modifications

H1 histamine receptor = biological target: T3, H1 histamine receptor (Bos taurus, UniProt P30546); test: H1 competitive binding assay, [3H]pyrilamine, bovine cerebellar membranes; settings: bovine cerebellar membrane
T3 construct: the receptors were obtained from bovine cerebellar membrane tissue; from tissue; host or cells: bovine cerebellar membranes
T3 sequence (P30546 whole entry): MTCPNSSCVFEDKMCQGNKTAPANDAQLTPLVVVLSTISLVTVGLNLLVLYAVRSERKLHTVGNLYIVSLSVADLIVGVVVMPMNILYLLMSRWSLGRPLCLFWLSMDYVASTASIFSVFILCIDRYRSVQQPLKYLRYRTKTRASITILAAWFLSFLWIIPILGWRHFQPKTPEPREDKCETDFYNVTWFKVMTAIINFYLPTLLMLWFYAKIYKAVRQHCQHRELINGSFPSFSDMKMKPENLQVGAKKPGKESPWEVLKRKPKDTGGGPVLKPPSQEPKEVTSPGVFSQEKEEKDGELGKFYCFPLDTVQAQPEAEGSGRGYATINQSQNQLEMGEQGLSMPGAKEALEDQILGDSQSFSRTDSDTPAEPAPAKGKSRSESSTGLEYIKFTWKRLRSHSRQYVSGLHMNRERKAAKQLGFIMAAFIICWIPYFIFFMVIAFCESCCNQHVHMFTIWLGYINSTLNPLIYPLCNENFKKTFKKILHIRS

M1 muscarinic receptor = biological target: T4, M1 muscarinic receptor (Homo sapiens, UniProt P11229); test: M1 binding assay, [3H]-scopolamine N-methyl chloride, CHO cells; settings: human recombinant
T4 construct: purchased PerkinElmer, Inc., Wellesley, Mass; host or cells: CHO cells
T4 sequence (P11229 1-460): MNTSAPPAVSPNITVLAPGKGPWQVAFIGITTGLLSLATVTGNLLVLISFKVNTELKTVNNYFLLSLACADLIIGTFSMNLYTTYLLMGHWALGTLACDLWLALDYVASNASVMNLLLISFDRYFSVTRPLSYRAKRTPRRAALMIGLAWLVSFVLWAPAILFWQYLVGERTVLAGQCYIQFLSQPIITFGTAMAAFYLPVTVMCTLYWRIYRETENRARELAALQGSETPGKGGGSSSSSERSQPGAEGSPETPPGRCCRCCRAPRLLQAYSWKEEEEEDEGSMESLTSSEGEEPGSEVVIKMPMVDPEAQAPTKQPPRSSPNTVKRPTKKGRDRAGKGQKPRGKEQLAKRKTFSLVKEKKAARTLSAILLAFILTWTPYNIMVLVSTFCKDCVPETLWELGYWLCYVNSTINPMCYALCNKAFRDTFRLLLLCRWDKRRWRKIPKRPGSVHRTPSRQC

| SMILES | Ki (alpha 1 receptors) [µM] | Ki (M2 muscarinic receptor) [µM] | Ki (D2 receptors) [µM] | Ki (M3 muscarinic receptor) [µM] | Ki (alpha 2 receptors) [µM] | Ki (Dopamine, D1) [µM] | Ki (H1 histamine receptor) | Ki (M1 muscarinic receptor) [µM] | hERG at 10 micromolar (% blocking of the hERG channel) (hERG channel) [%] |
| --- | --- | --- | --- | --- | --- | --- | --- | --- | --- |
| CC(C)(CCN1CCN(C2=Nc3ccccc3Oc3ccccc32)CC1)C(=O)O [Compound 3] | > 10 | > 10 | 1.19 | > 10 | > 10 | 4.92 | 0.00733 µM | > 10 | 3.8 |
| Cc1ccc2c(c1)Oc1ccccc1C(N1CCN(CC(C)(C)C(=O)O)CC1)=N2 [Compound 30] | > 10 | > 10 | > 10 | > 10 | > 10 | 5.06 | 0.0906 µM | > 10 | 4.50 |
| COc1ccc2c(c1)C(N1CCN(CC(C)(C)C(=O)O)CC1)=Nc1cc(F)ccc1O2 [Compound 48] | > 10 | – | – | > 10 | – | – | 0.0271 µM | > 10 | – |
| COc1ccc2c(c1)Oc1ccc(Br)cc1N=C2N1CCN(CC(C)(C)C(=O)O)CC1 [Compound 86] | – | – | – | – | – | – | – | – | 86.90 |
| Cc1ccc2c(c1)Oc1ccc(C)cc1C(N1CCN(CC(C)(C)C(=O)O)CC1)=N2 [Compound 31] | > 10 | – | 2.2 | > 10 | > 10 | 0.873 | 0.239 µM and 0.337 µM and 0.244 µM | > 10 | 3.80 |
| COc1ccc2c(c1)N=C(N1CCN(CC(C)(C)C(=O)O)CC1)c1cc(C)ccc1O2 [Compound 56] | > 10 | – | > 10 | > 10 | > 10 | > 10 | 0.117 µM | > 10 | 0.30 |
| COc1ccc2c(c1)Oc1ccc(OC)cc1C(N1CCN(CC(C)(C)C(=O)O)CC1)=N2 [Compound 35] | > 10 | – | > 10 | > 10 | > 10 | > 10 | – | > 10 | 0.10 |
| COc1ccc2c(c1)C(N1CCN(CC(C)(C)C(=O)O)CC1)=Nc1cc(C)ccc1O2 [Compound 54] | 1.21 | > 10 | 1.08 | – | 5.82 | 4.97 | 0.0404 µM | > 10 | 6.10 |
| Cc1ccc2c(c1)Oc1ccccc1N=C2N1CCN(CC(C)(C)C(=O)O)CC1 [Compound 46] | > 10 | – | > 10 | > 10 | > 10 | > 10 | 0.0188 µM | > 10 | 20.40 |

Further lines, with some results ahead:

| Ki (alpha 1 receptors) [µM] | Ki (M2 muscarinic receptor) [µM] | Ki (D2 receptors) [µM] | Ki (M3 muscarinic receptor) [µM] | Ki (alpha 2 receptors) [µM] | Ki (Dopamine, D1) [µM] | Ki (H1 histamine receptor) | Ki (M1 muscarinic receptor) [µM] | SMILES | hERG at 10 micromolar (% blocking of the hERG channel) (hERG channel) [%] |
| --- | --- | --- | --- | --- | --- | --- | --- | --- | --- |
| > 10 | > 10 | 0.0533 | > 10 | > 10 | 1.12 | 0.036 µM | > 10 | O=C(O)C1(CN2CCN(C3=Nc4ccccc4Oc4ccc(Br)cc43)CC2)CC1 [Compound 9] | 59 |
| 2.73 | – | 0.0961 | – | > 10 | 7.17 | 0.0138 µM | – | CC(C)(CCN1CCN(C2=Nc3ccccc3Oc3ccc(Cl)cc32)CC1)C(=O)O [Compound 6] | 27 |
| 0.595 | > 10 | 0.36 | > 10 | 1.95 | 1.14 | 0.0318 µM | > 10 | Cc1ccc2c(c1)C(N1CCN(CC(C)(C)C(=O)O)CC1)=Nc1cc(Br)ccc1O2 [Compound 50] | 45.00 |
| > 10 | > 10 | 0.434 | > 10 | > 10 | 3.35 | 0.0117 µM | > 10 | CC(C)(CN1CCN(C2=Nc3ccccc3Oc3ccc(Br)cc32)CC1)C(=O)O [Compound 8] | 49 |
| > 10 | > 10 | 1.24 | > 10 | > 10 | 5.22 | 0.137 µM | > 10 | COc1ccc2c(c1)C(N1CCN(CC(C)(C)C(=O)O)CC1)=Nc1ccccc1O2 [Compound 12] | 7.20 |
| > 10 | – | > 10 | > 10 | > 10 | > 10 | 1.12 µM | > 10 | COc1ccc2c(c1)N=C(N1CCN(CC(C)(C)C(=O)O)CC1)c1ccc(OC)cc1O2 [Compound 42] | 5.80 |
| > 10 | > 10 | 4.03 | > 10 | > 10 | 2 | – | > 10 | COc1ccc2c(c1)C(N1CCN(CC(C)(C)C(=O)O)CC1)=Nc1ccc(C)cc1O2 [Compound 58] | 0.20 |
| > 10 | – | 0.47 | > 10 | – | 0.514 | – | > 10 | COc1ccc2c(c1)C(N1CCN(CC(C)(C)C(=O)O)CC1)=Nc1ccc(Br)cc1O2 [Compound 72] | 10.90 |
| > 10 | > 10 | > 10 | > 10 | > 10 | > 10 | 0.0572 µM | > 10 | COc1ccc2c(c1)N=C(N1CCN(CC(C)(C)C(=O)O)CC1)c1ccccc1O2 [Compound 21] | 0 |
| 3.02 | > 10 | 1.61 | > 10 | > 10 | 4.52 | 0.0239 µM | > 10 | CC(C)(CN1CCN(C2=Nc3ccccc3Oc3ccc(Cl)cc32)CC1)C(=O)O [Compound 5] | 36 |
| 1.99 | > 10 | 0.883 | > 10 | – | 3.45 | 0.012 µM | > 10 | CC(C)(CN1CCN(C2=Nc3cc(Br)ccc3Oc3ccccc32)CC1)C(=O)O [Compound 17] | 30.10 |
| > 10 | – | – | > 10 | > 10 | – | 0.0414 µM | > 10 | Cc1ccc2c(c1)Oc1ccc(Br)cc1N=C2N1CCN(CC(C)(C)C(=O)O)CC1 [Compound 44] | 65.90 |
| > 10 | > 10 | > 10 | > 10 | > 10 | – | 0.0554 µM | > 10 | Cc1ccc2c(c1)N=C(N1CCN(CC(C)(C)C(=O)O)CC1)c1ccc(C)cc1O2 [Compound 52] | 19.80 |
